Data: BigSolDB 2.1

OC(Cn1cncn1)(Cn1cncn1)c1ccc(F)cc1F
solubility (mole fraction)
Details	293.15 K	298.15 K	303.15 K	308.15 K	313.15 K	318.15 K	323.15 K
in ethanol	0.0105	0.0123	0.014	0.0157	0.0183	0.023	0.0282
in water	7.76e-05	7.99e-05	8.28e-05	8.58e-05	9.06e-05	9.59e-05	0.000104
